Assay results taken from patent publication US20220267390A1, “MPS MODIFIED PEPTIDES AND USE THEREOF” (The Regents of the University of California, priority 2019, published 2022).
Where no end group is shown, it is not given here.

Tests used:
[1] = tested on: bleomycin-induced pulmonary fibrosis; test: Bleomycin-induced pulmonary fibrosis; assay type: in vivo, C57BL/6J mice; conditions: 28 mg/kg i.p. every other day, Masson's trichrome staining after 22 days
Protocol: FIGS. 20A and 20B show suppressive effects of MPS peptide on pulmonary fibrosis in vivo. C57BL/6 mice were intraperitoneally given either PBS, nintedanib (28 mg/kg), MPS peptide (28 mg/kg) or MPS-12042 (7 mg/kg) at the dosage of every two days after 9 days of intratracheal exposure with one shot of saline or bleomycin (33 μg in […] of saline, n=5). (FIG. 20A) Representative Masson trichrome and immunohistochemical staining of phospho-MARCKS (Ser159/163) and phospho-AKT (Ser473) (n=6). (FIG. 20B) Hydroxyproline level in the left lung of mice as described above was determined by a hydroxyproline ELISA assay (mean±SD, *p<0.05).
MPS peptide potentially serves as an antifibrotic agent in bleomycin-induced pulmonary fibrosis. Bleomycin remains the standard agent for induction of experimental pulmonary fibrosis in animals^23. Thus, 8-week-old female C57BL/6J mice received saline or bleomycin intratracheally (33 μg in […] of saline) as previously described^23. Lung specimens from bleomycin- or saline-treated mice were collected and subjected to immunofluorescence staining. […] Next, lung fibroblast cells isolated from saline- or bleomycin-treated mice (two mice fibroblast cell lines were gifts from Dr. Sem H. Phan, University of Michigan School of Medicine, MI) were incubated with either 100 μM control or MPS peptide for 48 hours. […]

[2] = tested on: primary IPF fibroblast cells; test: Cell motility and colony-forming ability of primary IPF fibroblasts; assay type: cell-based, human
Protocol: FIGS. 4A-4B: MARCKS inhibition using MPS peptide reduced primary IPF fibroblast cell motility (FIG. 4A) and colony-forming ability (FIG. 4B) n=4; *, p<0.05.
An in vitro cell migration assay was performed as previously described^13, 14 using Transwell chambers (8-μm pore size; Costar, Cambridge, Mass.). Briefly, 2×10^4 cells were seeded on top of the polycarbonate filters, and 0.5 ml of growth medium with scrambled or MPS peptide (100 μM) was added to both the upper and lower wells. After incubation for 20 hours, filters were swabbed with a cotton swab, fixed with methanol, and then stained with Giemsa solution (Sigma). The cells attached to the lower surface of the filter were counted under a light microscope (10× magnification).
Cells were seeded onto 96-well plates at a density of 5-10×10^3 cells per well and cultured for the indicated treatment. Cell proliferation was evaluated using a MTS assay kit (Promega, Madison, Wis.). Twenty microliters of the combined MTS/PMS solution was added into each well, incubated for 3 hours at 37° C., and the absorbance was measured at 490 nm by using an ELISA reader. […] After 72 hours, both attached and detached cells were collected and then stained with 0.2% trypan blue (0.1% final concentration), and the number of trypan blue-positive and -negative cells was counted using a haemocytometer under low-power microscopy. […]

[3] = tested on: oncospheres derived from H292 cells; test: Sphere-forming assay, smoke-enriched oncospheres derived from H292 cells; assay type: cell-based
Excerpt: FIG. 18A-18C: (FIG. 18A) Sphere-forming assays for evaluating the inhibitory effect of the MPS peptide on smoke-mediated stemness. (FIG. 18B) Quantification of the number and size of oncospheres. (FIG. 18C) RT-qPCR analyses of mRNA expression in the above oncospheres.
Targeting the MARCKS PSD is associated with inhibition of stem-like cell properties. In light of the importance of the PSD in the functionality of MARCKS protein, Applicant designed a 25-mer MPS peptide to mimic the MARCKS phosphorylation site domain (PSD). […] Applicant's initial studies have shown that elevation of phospho-MARCKS in lung cancer spheres acted in parallel with increased stemness markers, such as CD133, Oct3/4, SOX2 and Nanog (data not included). The oncospheres were derived from high MARCKS-expressing lung cancer cell lines (H1975 and CL1-5) and primary lung cancer cells (LG704 and LC3: pleural effusion cells isolated from patients with advanced stage) in non-adherent serum-free culture conditions as described previously^30-32. Flow cytometry confirmed that ˜80% of LG704 oncosphere cells are CD133-positive, a major lung CSCs marker. […] The sphere-forming ability was assessed by counting the number and size of tumor spheres (oncospheres) under a microscope. […]

Q: What does the source list for KKKKKRFSFKKSFKLSGFSFKKNKK [MPS peptide]?
A: fibroblastic lesions and deposited extracellular matrix in the lungs [1]: decreases of fibroblastic lesions and deposited extracellular matrix; cell motility [2]: reduces; proliferation (colony-forming ability) [2]: reduces; number and size of oncospheres [3]: inhibitory effects; expression of stemness genes ([3]; RT-qPCR): inhibitory effects
